Measured values as given in paper PMC8398451, “Molecular Engineering of Curcumin, an Active Constituent of Curcuma longa L. (Turmeric) of the Family Zingiberaceae with Improved Antiproliferative Activity” (Plants, 2021).

Tests used:
SR = experiment: NCI antiproliferative SRB assay, Leukemia panel; format: cell-based, Human; settings: one dose 10 µM
HCT-116 = experiment: NCI antiproliferative SRB assay, Colon Cancer panel; format: cell-based, Human; settings: one dose 10 µM
NCI-H226 = experiment: NCI antiproliferative SRB assay, Non-Small Cell Lung Cancer panel; format: cell-based, Human; settings: one dose 10 µM
SNB-19 = experiment: NCI antiproliferative SRB assay, CNS Cancer panel; format: cell-based, Human; settings: one dose 10 µM
SK-MEL-2 = experiment: NCI antiproliferative SRB assay, Melanoma panel; format: cell-based, Human; settings: one dose 10 µM
SF-268 = experiment: NCI antiproliferative SRB assay, CNS Cancer panel; format: cell-based, Human; settings: one dose 10 µM
COLO 205 = experiment: NCI antiproliferative SRB assay, Colon Cancer panel; format: cell-based, Human; settings: one dose 10 µM
SNB-75 = experiment: NCI antiproliferative SRB assay, CNS Cancer panel; format: cell-based, Human; settings: one dose 10 µM
A498 = experiment: NCI antiproliferative SRB assay, Renal Cancer panel; format: cell-based, Human; settings: one dose 10 µM
OVCAR-8 = experiment: NCI antiproliferative SRB assay, Ovarian Cancer panel; format: cell-based, Human; settings: one dose 10 µM
NCI-H322M = experiment: NCI antiproliferative SRB assay, Non-Small Cell Lung Cancer panel; format: cell-based, Human; settings: one dose 10 µM
ACHN = experiment: NCI antiproliferative SRB assay, Renal Cancer panel; format: cell-based, Human; settings: one dose 10 µM
[1] = system: Breast Cancer cell line panel; experiment: NCI antiproliferative assay, panel summary; format: cell-based, Human; settings: 10 µM
NCI/ADR-RES = experiment: NCI antiproliferative SRB assay, Ovarian Cancer panel; format: cell-based, Human; settings: one dose 10 µM
BT-549 = experiment: NCI antiproliferative SRB assay, Breast Cancer panel; format: cell-based, Human; settings: one dose 10 µM
EKVX = experiment: NCI antiproliferative SRB assay, Non-Small Cell Lung Cancer panel; format: cell-based, Human; settings: one dose 10 µM
HL-60(TB) = experiment: cells; format: cell-based; settings: one dose 10 µM
RXF 393 = experiment: NCI antiproliferative SRB assay, Renal Cancer panel; format: cell-based, Human; settings: one dose 10 µM
KM12 = experiment: NCI antiproliferative SRB assay, Colon Cancer panel; format: cell-based, Human; settings: one dose 10 µM
NCI-H522 = experiment: NCI antiproliferative SRB assay, Non-Small Cell Lung Cancer panel; format: cell-based, Human; settings: one dose 10 µM
OVCAR-4 = experiment: NCI antiproliferative SRB assay, Ovarian Cancer panel; format: cell-based, Human; settings: one dose 10 µM
RPMI-8226 = experiment: NCI antiproliferative SRB assay, Leukemia panel; format: cell-based, Human; settings: one dose 10 µM
SF-295 = experiment: NCI antiproliferative SRB assay, CNS Cancer panel; format: cell-based, Human; settings: one dose 10 µM

COc1ccc(/C=C/c2cc(/C=C/c3ccc(OC)c(O)c3)n(-c3cccc(Cl)c3)c(=S)n2)cc1O [3a]
%GI (SR): 51.28% | GP (growth percent) (SR): 48.72 | %GI (HCT-116): 38.12% | GP (growth percent) (HCT-116): 61.88 | %GI (NCI-H226): 1.46% | GP (growth percent) (NCI-H226): 98.54 | %GI (SNB-19): 15.45% | GP (growth percent) (SNB-19): 84.55 | %GI (SK-MEL-2): 4.85% | GP (growth percent) (SK-MEL-2): 95.15 | %GI (SF-268): 16.24% | GP (growth percent) (SF-268): 83.76 | %GI (COLO 205): −7.08% | GP (growth percent) (COLO 205): 107.08 | %GI (SNB-75): 19.22% | GP (growth percent) (SNB-75): 80.78 | %GI (A498): −4.38% | GP (growth percent) (A498): 104.38 | %GI (OVCAR-8): 28.57% | GP (growth percent) (OVCAR-8): 71.43 | %GI (NCI-H322M): 8.07% | GP (growth percent) (NCI-H322M): 91.93 | %GI (ACHN): 4.99% | GP (growth percent) (ACHN): 95.01 | Mean % GI [1]: 26.56% | %GI (NCI/ADR-RES): 3.63% | GP (growth percent) (NCI/ADR-RES): 96.37 | %GI (BT-549): 27.48% | GP (growth percent) (BT-549): 72.52 | %GI (EKVX): 14.19% | GP (growth percent) (EKVX): 85.81 | %GI (HL-60(TB)): 16.52% | GP (growth percent) (HL-60(TB)): 83.48 | %GI (RXF 393): 7.37% | GP (growth percent) (RXF 393): 92.63 | %GI (KM12): 19.67% | GP (growth percent) (KM12): 80.33 | %GI (NCI-H522): 62.11% | GP (growth percent) (NCI-H522): 37.89 | %GI (OVCAR-4): 17.45% | GP (growth percent) (OVCAR-4): 82.55 | %GI (RPMI-8226): 39.41% | GP (growth percent) (RPMI-8226): 60.59 | %GI (SF-295): −9.94% | GP (growth percent) (SF-295): 109.94
